Measured values reported in PubChem BioAssay (NCI).
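All cell lines were grown in 96-well plates and treated with compound for 48 hours. At the GI50, growth is halved. TGI marks complete inhibition of growth.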

Key:
Assay in all cases: NCI tumour cell line growth inhibition, 48 h
[1] = system: HOP-62 NSCLC
[2] = system: IGROV1 ovarian
[3] = system: MCF7 breast
[4] = system: NCI-H23 lung
[5] = system: OVCAR-4 ovarian
[6] = system: RXF 393 renal
[7] = system: SF-268 CNS
[8] = system: SF-539 CNS
[9] = system: SN12C renal
[10] = system: HCC-2998 colon

CCSc1nc(NC(C)c2ccccc2)c2cnn(CO)c2n1 (stereo unspecified)
GI50 [1]: > 100 µM
TGI [1]: > 100 µM
GI50 [2]: > 100 µM
TGI [2]: > 100 µM
GI50 [3]: 52.8 µM
TGI [3]: > 100 µM
GI50 [4]: 18.4 µM
TGI [4]: > 100 µM
GI50 [5]: 86.4 µM
TGI [5]: > 100 µM
GI50 [6]: 91.5 µM
TGI [6]: > 100 µM
GI50 [7]: > 100 µM
TGI [7]: > 100 µM
GI50 [8]: 94.4 µM
TGI [8]: > 100 µM
GI50 [9]: > 100 µM
TGI [9]: > 100 µM

N#CC(C#N)=Cc1ccc(C(O)P(=O)(O)O)cc1 (stereo unspecified)
TGI [10]: > 100 µM
TGI [1]: > 100 µM
TGI [2]: > 100 µM
TGI [4]: > 100 µM
TGI [5]: > 100 µM
TGI [7]: > 100 µM
TGI [8]: > 100 µM
TGI [9]: > 100 µM

COc1cccc(CCNC(=O)CC(c2ccccc2)(c2ccccc2)c2ccccc2)c1
GI50 [1]: 59.4 µM
TGI [1]: > 100 µM
GI50 [3]: 21.5 µM
TGI [3]: > 100 µM
GI50 [5]: > 100 µM
TGI [5]: > 100 µM
GI50 [7]: 15 µM
TGI [7]: > 100 µM

O=C(O)CCC(=O)Oc1ccc(O)c2c1CCCC2=O
TGI [10]: > 100 µM
TGI [1]: > 100 µM
TGI [2]: > 100 µM
TGI [4]: > 100 µM
TGI [5]: > 100 µM
TGI [6]: > 100 µM
TGI [7]: > 100 µM
TGI [8]: > 100 µM
TGI [9]: > 100 µM

CCOC(=O)NC(=O)c1cn(CCCCCCCCCCC(=O)NCCCN2CCN(CCCNC(=O)CCCCCCCCCCn3cc(C(=O)NC(=O)OCC)c(=O)[nH]c3=O)CC2)c(=O)[nH]c1=O
TGI [10]: > 100 µM
TGI [1]: > 10 µM
TGI [4]: > 100 µM
TGI [7]: > 100 µM
TGI [8]: > 100 µM
TGI [9]: > 100 µM

C[C@]12CCCN1CC1=NNC(=O)c3cc(F)cc4[nH]c2c1c34
GI50 [10]: 25.1 µM
TGI [10]: 91.6 µM
GI50 [1]: 20.1 µM
TGI [1]: 89.4 µM
GI50 [2]: 21.5 µM
TGI [2]: > 100 µM
GI50 [3]: 11.6 µM
TGI [3]: > 100 µM
GI50 [4]: 16.1 µM
TGI [4]: 54.6 µM
GI50 [5]: 24.9 µM
TGI [5]: > 100 µM
GI50 [7]: 19 µM
TGI [7]: 61.4 µM
GI50 [8]: 17.6 µM
TGI [8]: 57.7 µM
GI50 [9]: 14.3 µM
TGI [9]: 79.1 µM

N#CC(C(=O)CCC(=O)Nc1ccc(Cl)cc1)c1ccc(Cl)cc1 (stereo unspecified)
TGI [10]: > 100 µM
TGI [1]: > 100 µM
TGI [2]: > 100 µM
TGI [4]: > 100 µM
TGI [5]: > 100 µM
TGI [7]: > 100 µM
TGI [8]: > 100 µM
TGI [9]: > 100 µM

Cc1cc(Cl)ccc1NC(=O)CC1SC(=NC(=O)c2ccccc2Cl)NC1=O (stereo unspecified)
TGI [10]: > 100 µM
TGI [2]: > 100 µM
TGI [4]: > 100 µM
TGI [5]: 38.6 µM
TGI [6]: 35.1 µM
TGI [7]: 36.7 µM
TGI [8]: 35.4 µM
TGI [9]: 33.5 µM

CS(=O)(=O)c1ccc2c(c1)C(=O)c1c-2n(CCCBr)c(=O)c2cc([N+](=O)[O-])ccc12
GI50 [10]: 24.8 µM
TGI [10]: > 100 µM
GI50 [1]: 8.14 µM
TGI [1]: > 100 µM
GI50 [2]: 13.6 µM
TGI [2]: > 100 µM
GI50 [3]: 0.992 µM
TGI [3]: > 100 µM
GI50 [4]: 7.87 µM
TGI [4]: > 100 µM
GI50 [5]: 47.4 µM
TGI [5]: > 100 µM
GI50 [7]: 9.59 µM
TGI [7]: > 100 µM
GI50 [8]: 24 µM
TGI [8]: > 100 µM
GI50 [9]: 6.88 µM
TGI [9]: > 100 µM

Cc1ccc2nc(Sc3c([N+](=O)[O-])ncn3C)[nH]c2c1
TGI [10]: 30.6 µM
TGI [1]: > 100 µM
TGI [2]: 65.6 µM
TGI [4]: 50.5 µM
TGI [5]: 79.2 µM
TGI [6]: 39.5 µM
TGI [7]: 83.9 µM
TGI [8]: 36.4 µM
TGI [9]: 35.8 µM

COc1ccc(CN2C(=O)/C(=C\C(=O)c3ccc(OCCN4CCCC4)cc3)c3ccccc32)cc1
GI50 [10]: 2.6 µM
TGI [10]: 6.12 µM
GI50 [1]: 20.8 µM
TGI [1]: 43.9 µM
GI50 [2]: 1.99 µM
TGI [2]: 3.78 µM
GI50 [4]: 10.9 µM
TGI [4]: 36.5 µM
GI50 [5]: 2.18 µM
TGI [5]: 5.44 µM
GI50 [6]: 1.95 µM
TGI [6]: 3.66 µM
GI50 [7]: 13.2 µM
TGI [7]: 42.7 µM
GI50 [8]: 1.82 µM
TGI [8]: 3.75 µM

c1ccc(COCC[P+](c2ccccc2)(c2ccccc2)c2ccccc2)cc1
GI50 [1]: 3.59 µM
TGI [1]: 32.4 µM
GI50 [2]: 1.08 µM
TGI [2]: 11.9 µM
GI50 [3]: 0.564 µM
TGI [3]: 7.27 µM
GI50 [4]: 0.664 µM
TGI [4]: 6.75 µM
GI50 [5]: 0.444 µM
TGI [5]: 12.2 µM
GI50 [7]: 3.17 µM
TGI [7]: 23.1 µM
GI50 [8]: 2.4 µM
TGI [8]: 14.5 µM
GI50 [9]: 2.3 µM
TGI [9]: 11.3 µM

N.N.N.N.N.N#Cc1nn[n-]n1.[Cl-].[Co+3]
GI50 [10]: > 100 µM
TGI [10]: > 100 µM
GI50 [1]: > 100 µM
TGI [1]: > 100 µM
GI50 [2]: > 100 µM
TGI [2]: > 100 µM
GI50 [4]: > 100 µM
TGI [4]: > 100 µM
GI50 [5]: > 100 µM
TGI [5]: > 100 µM
GI50 [6]: > 100 µM
TGI [6]: > 100 µM
GI50 [7]: > 100 µM
TGI [7]: > 100 µM
GI50 [8]: > 100 µM
TGI [8]: > 100 µM
GI50 [9]: > 100 µM
TGI [9]: > 100 µM

O=C(Nc1ccccc1)n1cc(-c2ccccn2)c(N2CCOCC2)n1
TGI [10]: > 100 µM
TGI [1]: > 100 µM
TGI [2]: > 100 µM
TGI [5]: > 100 µM
TGI [7]: > 100 µM
TGI [8]: 57.6 µM
TGI [9]: > 100 µM

COc1ccc(NC(=S)C#N)cc1
TGI [10]: > 100 µM
TGI [1]: > 100 µM
TGI [3]: > 100 µM
TGI [4]: > 100 µM
TGI [6]: > 100 µM
TGI [7]: > 100 µM
TGI [8]: > 100 µM
TGI [9]: > 100 µM

O=C(COc1cccc(/C=C2\COc3ccccc3C2=O)c1)c1ccccc1
GI50 [1]: 5.24 µM
TGI [1]: 18.2 µM
GI50 [2]: 2.18 µM
TGI [2]: 3.96 µM
GI50 [3]: 1.98 µM
TGI [3]: 4.27 µM
GI50 [4]: 4.47 µM
TGI [4]: 16.1 µM
GI50 [5]: 3.84 µM
TGI [5]: 15.4 µM
GI50 [6]: 2.48 µM
TGI [6]: 9.29 µM
GI50 [7]: 3.23 µM
TGI [7]: 10.2 µM
GI50 [8]: 15.6 µM
TGI [8]: 29 µM
GI50 [9]: 4.7 µM
TGI [9]: 19.8 µM

CN1C(c2ccccc2)CC(C)(O)CC1c1ccccc1 (stereo unspecified)
TGI [10]: > 100 µM
TGI [1]: > 100 µM
TGI [2]: > 100 µM
TGI [4]: > 100 µM
TGI [5]: > 100 µM
TGI [6]: > 100 µM
TGI [7]: > 100 µM
TGI [8]: > 100 µM
TGI [9]: > 100 µM

NC(CP(=O)(O)O)C(=O)O (stereo unspecified)
TGI [10]: > 100 µM
TGI [1]: > 100 µM
TGI [2]: > 100 µM
TGI [3]: > 100 µM
TGI [4]: > 100 µM
TGI [5]: > 100 µM
TGI [6]: > 100 µM
TGI [7]: > 100 µM
TGI [9]: > 100 µM
